Structures can show the parent of a compound that is named as a salt. Where two headings read alike, the source gives them in different places.
Tested on: Ixodes ricinus
Assay: Oral acaricidal test on ticks in membrane feeding wells with treated blood
Type: in vivo
Details: for mortality at 1 ppm / mortality at 10 ppm / mortality at 100 ppm: Ixodes ricinus, po; for average percentage of affected adult ticks (convulsion, morbidity or death of ticks): 100 ppm oral
Protocol: A laboratory study was conducted to determine the oral acaricidal properties of three compounds according to the invention (SN0305, SN0306 and SN0307) against Ixodes ricinus. Each compound was tested at 1, 10 and 100 ppm, and compared to a negative control corresponding to solvent alone (0.1% DMSO). Amitraz at 100 ppm was used as a positive control.
The Ixodes ricinus ticks (nymphs and adults) were placed for 24 hours on a membrane in feeding wells containing blood mixed with the tested compounds. Tick mortality (number of dead, moribund, or unaffected ticks in each well), attachment to the membrane (number of ticks attached/detached in each well), and the behavior (presence or absence of twitches) were examined 1, 3, 6, 12, 24, 48, 72, and 96 hours after the onset of tick exposure to the compounds.
Ticks (Ixodes ricinus) were collected. Collected adult females were kept separate from the nymphs and both were placed in sterile tubes in a humidity chamber to provide ˜80% humidity and 17° C. Only healthy ticks (females/nymphs) were chosen for the experiment.
Batches of 12 adults or nymphs were inserted into the feeding wells. After about 24 hours, their attachment was examined with a brush.
The efficiency of three compounds (SN0305, SN0306 and SN0307), each tested at three concentrations (1, 10, 100 ppm), was compared to the solvent control (0.1% DMSO, Sigma-Aldrich D-5879; Lot 101K0028) and to the positive control (Amitraze at 100 ppm).
Silicone-coated membranes with a thickness comprised between 110 and 140 μm were used for the construction of the feeding units.
Feeding units (sterilized acrylic glass tubes) were placed in feeding wells made of sterilized six-well plates.
3.1 ml of sterile 10^−3 M ATP-enriched blood was applied to each feeding well. Feeding wells were then inserted into a heated water bath (FIG. 12) and maintained at 37° C.±2° C.
Stock solutions of 100,000 ppm were prepared and tenth dilutions were carried out in 0.1% DMSO to reach the desired concentrations. After tick attachment (24 hours after placing the ticks in the feeding wells), 3.1 μl of the solutions were added to each feeding well containing 3.1 ml of blood. Blood was changed after 12 hours with fresh supplementation of the compounds to be tested. The ticks were exposed to the product for a total of 24 hours, after which the blood was again changed to fresh, untreated blood.
Tick mortality (number of dead, moribund or unaffected ticks in each well), attachment (number of attached/detached ticks in each well) and behavior (presence, absence and intensity of convulsions) were examined 1, 3, 6, 12, 24, 48, 72, and 96 hours after the start of tick exposure to the compound.

[1] = adult ticks, 1 h, read-out: average percentage of adult tick mortality (moribund or dead adult ticks)
[2] = adult ticks, 3 h, read-out: average percentage of adult tick mortality (moribund or dead adult ticks)
[3] = adult ticks, 6 h, read-out: average percentage of adult tick mortality (moribund or dead adult ticks)
[4] = adult ticks, 12 h, read-out: average percentage of adult tick mortality (moribund or dead adult ticks)
[5] = adult ticks, 24 h, read-out: average percentage of adult tick mortality (moribund or dead adult ticks)
[6] = adult ticks, 48 h, read-out: average percentage of adult tick mortality (moribund or dead adult ticks)
[7] = adult ticks, 72 h, read-out: average percentage of adult tick mortality (moribund or dead adult ticks)
[8] = adult ticks, 96 h, read-out: average percentage of adult tick mortality (moribund or dead adult ticks)
[9] = adult ticks, 100 ppm, 1 h, read-out: average percentage of adult tick mortality (moribund or dead adult ticks)
[10] = adult ticks, 100 ppm, 3 h, read-out: average percentage of adult tick mortality (moribund or dead adult ticks)
[11] = adult ticks, 100 ppm, 6 h, read-out: average percentage of adult tick mortality (moribund or dead adult ticks)
[12] = adult ticks, 100 ppm, 12 h, read-out: average percentage of adult tick mortality (moribund or dead adult ticks)
[13] = adult ticks, 100 ppm, 24 h, read-out: average percentage of adult tick mortality (moribund or dead adult ticks)
[14] = adult ticks, 100 ppm, 48 h, read-out: average percentage of adult tick mortality (moribund or dead adult ticks)
[15] = adult ticks, 100 ppm, 72 h, read-out: average percentage of adult tick mortality (moribund or dead adult ticks)
[16] = adult ticks, 100 ppm, 96 h, read-out: average percentage of adult tick mortality (moribund or dead adult ticks)
[17] = nymphs, 1 h, read-out: average percentage of mortality of tick nymphs (moribund or dead nymphs)
[18] = nymphs, 3 h, read-out: average percentage of mortality of tick nymphs (moribund or dead nymphs)
[19] = nymphs, 6 h, read-out: average percentage of mortality of tick nymphs (moribund or dead nymphs)
[20] = nymphs, 12 h, read-out: average percentage of mortality of tick nymphs (moribund or dead nymphs)
[21] = nymphs, 24 h, read-out: average percentage of mortality of tick nymphs (moribund or dead nymphs)
[22] = nymphs, 48 h, read-out: average percentage of mortality of tick nymphs (moribund or dead nymphs)
[23] = nymphs, 72 h, read-out: average percentage of mortality of tick nymphs (moribund or dead nymphs)
[24] = nymphs, 96 h, read-out: average percentage of mortality of tick nymphs (moribund or dead nymphs)
[25] = nymphs, 100 ppm, 1 h, read-out: average percentage of mortality of tick nymphs (moribund or dead nymphs)
[26] = nymphs, 100 ppm, 3 h, read-out: average percentage of mortality of tick nymphs (moribund or dead nymphs)
[27] = nymphs, 100 ppm, 6 h, read-out: average percentage of mortality of tick nymphs (moribund or dead nymphs)
[28] = nymphs, 100 ppm, 12 h, read-out: average percentage of mortality of tick nymphs (moribund or dead nymphs)
[29] = nymphs, 100 ppm, 24 h, read-out: average percentage of mortality of tick nymphs (moribund or dead nymphs)
[30] = nymphs, 100 ppm, 48 h, read-out: average percentage of mortality of tick nymphs (moribund or dead nymphs)
[31] = nymphs, 100 ppm, 72 h, read-out: average percentage of mortality of tick nymphs (moribund or dead nymphs)
[32] = nymphs, 100 ppm, 96 h, read-out: average percentage of mortality of tick nymphs (moribund or dead nymphs)

## Cc1cccc(C(C)c2cnc[nH]2)c1C (racemic) [Medetomidine hydrochloride]
1, 10, 100 ppm, nymphs and adults
  effect in terms of tick detachment (in words): very limited effect
[1]
  mortality at 1 ppm: 0%
  mortality at 10 ppm: 0%
[2]
  mortality at 1 ppm: 0%
  mortality at 10 ppm: 0%
[3]
  mortality at 1 ppm: 2.3%
  mortality at 10 ppm: 9.6%
[4]
  mortality at 1 ppm: 7.3%
  mortality at 10 ppm: 9.6%
[5]
  mortality at 1 ppm: 47.6%
  mortality at 10 ppm: 53.9%
[6]
  mortality at 1 ppm: 97.7%
  mortality at 10 ppm: 91.2%
[7]
  mortality at 1 ppm: 100%
  mortality at 10 ppm: 100%
[8]
  mortality at 1 ppm: 100%
  mortality at 10 ppm: 100%
[9]
  mortality at 100 ppm: 0%
[10]
  mortality at 100 ppm: 0%
[11]
  mortality at 100 ppm: 12.5%
[12]
  mortality at 100 ppm: 18.1%
[13]
  mortality at 100 ppm: 53.1%
[14]
  mortality at 100 ppm: 84.7%
[15]
  mortality at 100 ppm: 93.8%
[16]
  mortality at 100 ppm: 100%
[17]
  mortality at 1 ppm: 0%
  mortality at 10 ppm: 0%
[18]
  mortality at 1 ppm: 0%
  mortality at 10 ppm: 10.4%
[19]
  mortality at 1 ppm: 19.5%
  mortality at 10 ppm: 38.4%
[20]
  mortality at 1 ppm: 38.9%
  mortality at 10 ppm: 58.5%
[21]
  mortality at 1 ppm: 61.8%
  mortality at 10 ppm: 78.7%
[22]
  mortality at 1 ppm: 93.9%
  mortality at 10 ppm: 85%
[23]
  mortality at 1 ppm: 100%
  mortality at 10 ppm: 95.8%
[24]
  mortality at 1 ppm: 100%
  mortality at 10 ppm: 100%
[25]
  mortality at 100 ppm: 0%
[26]
  mortality at 100 ppm: 9.1%
[27]
  mortality at 100 ppm: 38.5%
[28]
  mortality at 100 ppm: 69.2%
[29]
  mortality at 100 ppm: 94.4%
[30]
  mortality at 100 ppm: 100%
[31]
  mortality at 100 ppm: 100%
[32]
  mortality at 100 ppm: 100%
From 1 hour of exposure, regardless of the concentration tested (1, 10, 100 ppm)
  ticks affected (convulsion, morbidity or death of ticks): 100%

## Cc1ccc(/N=C/N(C)/C=N/c2ccc(C)cc2C)c(C)c1 [Amitraz]
Adult ticks, 1 h
  average percentage of affected adult ticks (convulsion, morbidity or death of ticks): 66.8%
Adult ticks, 3 h
  average percentage of affected adult ticks (convulsion, morbidity or death of ticks): 56.2%
Adult ticks, 6 h
  average percentage of affected adult ticks (convulsion, morbidity or death of ticks): 53.7%
Adult ticks, 12 h
  average percentage of affected adult ticks (convulsion, morbidity or death of ticks): 56.2%
Adult ticks, 24 h
  average percentage of affected adult ticks (convulsion, morbidity or death of ticks): 66.5%
Adult ticks, 48 h
  average percentage of affected adult ticks (convulsion, morbidity or death of ticks): 83.1%
Adult ticks, 72 h
  average percentage of affected adult ticks (convulsion, morbidity or death of ticks): 100.0%
Adult ticks, 96 h
  average percentage of affected adult ticks (convulsion, morbidity or death of ticks): 100.0%
100 ppm, adult ticks
  detachment of adult ticks (in words): strong detachment
100 ppm, adult ticks, 1 h
  average percentage of attached adult ticks: 66.8%
100 ppm, adult ticks, 3 h
  average percentage of attached adult ticks: 56.2%
100 ppm, adult ticks, 6 h
  average percentage of attached adult ticks: 53.7%
100 ppm, adult ticks, 12 h
  average percentage of attached adult ticks: 53.7%
100 ppm, adult ticks, 24 h
  average percentage of attached adult ticks: 53.7%
100 ppm, adult ticks, 48 h
  average percentage of attached adult ticks: 53.7%
100 ppm, adult ticks, 72 h
  average percentage of attached adult ticks: 53.7%
100 ppm, adult ticks, 96 h
  average percentage of attached adult ticks: 53.7%
100 ppm, nymphs, compared with SN0305, SN0306, SN0307
  effect on nymphs (convulsion, morbidity or death), in words: comparable result
[9]
  mortality at 100 ppm: 0%
[10]
  mortality at 100 ppm: 2.8%
[11]
  mortality at 100 ppm: 10.1%
[12]
  mortality at 100 ppm: 17.4%
[13]
  mortality at 100 ppm: 27.7%
[14]
  mortality at 100 ppm: 58.9%
[15]
  mortality at 100 ppm: 84.6%
[16]
  mortality at 100 ppm: 97.5%
[25]
  mortality at 100 ppm: 0%
[26]
  mortality at 100 ppm: 14%
[27]
  mortality at 100 ppm: 38.7%
[28]
  mortality at 100 ppm: 74.9%
[29]
  mortality at 100 ppm: 100%
[30]
  mortality at 100 ppm: 100%
[31]
  mortality at 100 ppm: 100%
[32]
  mortality at 100 ppm: 100%

Source: patent US12501899B2, “Mite infestation treatment” (priority 2019, dated 2025)
